Values quoted from earlier work as cited in patent US6682761B2, “Water-insoluble drug particle process” (RTP Pharma, Inc., priority 2000, dated 2004).

Conditions: in vivo

CC(C)(Oc1ccc(C(=O)c2ccc(Cl)cc2)cc1)C(=O)O [Fenofibric acid]
plasma half-life: about 20 hours
